Experimental data as given in ChEMBL document CHEMBL1140553, “Efficient synthesis and in vitro cytostatic activity of 4-substituted triazolyl-nucleosides” (Bioorg Med Chem Lett, 2007).

How the values were obtained:
Type in all cases: functional, cell-based
MOLT-4 = assay: Cytostatic activity against human Molt4/C8 cells
CCRF-CEM = assay: Cytostatic activity against human CEM cells
L1210 = assay: Cytostatic activity against mouse L1210 cells

| Compound | IC50 (MOLT-4) [µM] | IC50 (CCRF-CEM) [µM] | IC50 (L1210) [µM] |
| --- | --- | --- | --- |
| CC(O)c1cn([C@@H]2O[C@H](CO)[C@@H](O)[C@H]2O)nn1 (some centres undefined) | > 200 | > 200 | > 200 |
| OC[C@H]1O[C@@H](n2cc(-c3ccccn3)nn2)[C@H](O)[C@@H]1O | 170 | 245 | 236 |
| COc1ccc(-c2cn([C@@H]3O[C@H](CO)[C@@H](O)[C@H]3O)nn2)cc1 | 36 | 73 | 152 |
| OC[C@H]1O[C@@H](n2cc(-c3ccsc3)nn2)[C@H](O)[C@@H]1O | 126 | 139 | 182 |
| CCCCCCc1cn([C@@H]2O[C@H](CO)[C@@H](O)[C@H]2O)nn1 | > 200 | > 200 | > 200 |
| CCCCCCCCc1cn([C@@H]2O[C@H](CO)[C@@H](O)[C@H]2O)nn1 | 50 | 44 | 56 |
| OCc1cn([C@@H]2O[C@H](CO)[C@@H](O)[C@H]2O)nn1 | > 200 | > 200 | > 200 |
| OC[C@H]1O[C@@H](n2cc(-c3ccc(F)cc3)nn2)[C@H](O)[C@@H]1O | 171 | 217 | 209 |
